Results from patent US20040204383A1, “Lysophosphatidic acid analogs and inhibition of neointima formation” (priority 2003, published 2004).
“Also recorded” adds a separate entry of the source. Blank lines part the entries; values can stand above or below the molecule they belong to.

Legend:
rat carotid arteries = assay: Induction of neointima formation in rat carotid artery by topical application; assay type: in vivo
From the text: Briefly, the right carotid artery of anesthetized adult male Sprague-Dawley rats (250-300 g) was surgically exposed. The caudal origin of the common carotid artery was ligated using a vessel clip, followed by exposure and ligation of the internal carotid artery above the bifurcation. The external carotid artery was exposed, and a polyethylene catheter was inserted such that it never reached the common carotid artery, thereby avoiding mechanical injury to the vessel. The clip occluding the common carotid artery was temporarily released, and the vessel was rinsed with a retrograde injection of 500 μl physiological saline to remove residual blood. The vessel was again clipped, and 100 μl of treatment solution was injected. After 60 min of incubation, the cannula was withdrawn, the external carotid artery was ligated, and blood flow was restored. Animals were allowed to recover and were killed 7-56 d later by intracardiac perfusion of 10% buffered formaldehyde (pH 7.4). The common carotid artery from the […] to the bifurcation was dissected, embedded in paraffin, and processed for histological analysis. Five μm-thick sections were cut and stained with hematoxylin and eosin or Masson's trichrome stain. Intima to media ratios were quantified using an image analysis system (Scion Image CMS-800).

PPARγ = target: T1, PPARγ (Homo sapiens, UniProt P37231); assay: PPRE-Acox-Rluc reporter gene assay in CV-1 cells transfected with PPARγ; assay type: cell-based; conditions: for activation of the PPRE-Acox-Rluc reporter: 10 μM, 20 h, CV-1 cells (FIG. 6C)
T1 construct: expressed in transfected cells; host or cells: CV-1 cells, transient transfection with LipofectAMINE 2000
T1 sequence (P37231 1-505): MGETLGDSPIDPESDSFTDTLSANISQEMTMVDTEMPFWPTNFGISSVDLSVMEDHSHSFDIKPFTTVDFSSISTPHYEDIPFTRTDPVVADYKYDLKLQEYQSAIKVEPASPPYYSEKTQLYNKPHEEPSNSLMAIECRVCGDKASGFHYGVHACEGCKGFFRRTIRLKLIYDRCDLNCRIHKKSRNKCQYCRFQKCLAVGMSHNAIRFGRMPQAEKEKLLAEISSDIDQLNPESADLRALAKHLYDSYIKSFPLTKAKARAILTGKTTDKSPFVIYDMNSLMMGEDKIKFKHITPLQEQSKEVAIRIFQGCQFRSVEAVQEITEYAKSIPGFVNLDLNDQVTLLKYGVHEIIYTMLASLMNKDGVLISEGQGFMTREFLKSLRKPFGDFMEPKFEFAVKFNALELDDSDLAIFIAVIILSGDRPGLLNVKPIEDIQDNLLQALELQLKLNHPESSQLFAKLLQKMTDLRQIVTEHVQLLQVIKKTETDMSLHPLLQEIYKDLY
T1 sequence (P19793 1-462 partner): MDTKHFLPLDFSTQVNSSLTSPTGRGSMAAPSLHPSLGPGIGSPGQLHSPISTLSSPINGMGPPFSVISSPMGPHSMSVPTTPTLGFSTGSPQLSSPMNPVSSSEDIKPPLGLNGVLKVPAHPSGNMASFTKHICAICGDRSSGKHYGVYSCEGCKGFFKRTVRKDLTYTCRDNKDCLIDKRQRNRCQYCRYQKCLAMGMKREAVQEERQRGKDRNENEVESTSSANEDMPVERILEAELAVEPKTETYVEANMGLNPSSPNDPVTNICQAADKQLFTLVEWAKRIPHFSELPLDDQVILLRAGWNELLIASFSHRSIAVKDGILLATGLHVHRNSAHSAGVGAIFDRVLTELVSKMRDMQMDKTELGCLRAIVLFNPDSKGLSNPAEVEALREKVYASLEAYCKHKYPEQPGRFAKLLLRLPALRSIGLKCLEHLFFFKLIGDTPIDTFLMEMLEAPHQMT
Procedure: CV-1 cells were plated in 96-well plates (5×10^3 cells per well) in DME supplemented with 10% FBS. […] Twenty four hours after transfection, cells were treated with 1% FBS-supplemented OptiMEMI™ (Invitrogen) containing DMSO or test compound (10 μM) in DMSO for 20 h. Luciferase and β-galactosidase activities were measured with the Steady-Glo® Luciferase Assay System (Promega) and the Galacto-Light Plus™ System (Applied Biosystems), respectively. Samples were run in quadruplicate, and the mean±SE were calculated. Data are representative of at least three independent transfections. Student's t test was used for null hypothesis testing, and P<0.05 was considered significant.

[1] = system: CD36(−273)-Rluc reporter gene; assay: CD36(−273)-Rluc reporter gene (with PPRE) in CV-1 cells; assay type: cell-based; conditions: 10 μM, CV-1 cells (FIG. 7E)
Procedure: Therefore, the investigators compared the unique in vivo neointima-eliciting lysophosphatidic acid structure-activity relationship with that of PPARγ using an in vitro assay that utilizes an acyl-coenzyme A oxidase-luciferase (PPRE-Acox-Rluc) reporter gene construct containing a peroxisome proliferator-activated receptor response element. CV-1 cells were plated in 96-well plates (5×10^3 cells per well) in DME supplemented with 10% FBS. The next day, the cells were transiently transfected with 125 ng of pGL3-PPRE-acyl-CoA oxidase (Acox)-renilla luciferase), or 125 ng pGL3-CD36(−273), or pGL3-CD36(−261), 62.5 ng of pcDNAI-PPARγ, and 12.5 ng of pSV-β-galactosidase (Promega) using LipofectAMINE™ 2000 (Invitrogen). Twenty four hours after transfection, cells were treated with 1% FBS-supplemented OptiMEMI™ (Invitrogen) containing DMSO or test compound (10 μM) in DMSO for 20 h. Luciferase and β-galactosidase activities were measured with the Steady-Glo® Luciferase Assay System (Promega) and the Galacto-Light Plus™ System (Applied Biosystems), respectively. Samples were run in quadruplicate, and the mean±SE were calculated. Data are representative of at least three independent transfections. Student's t test was used for null hypothesis testing, and P<0.05 was considered significant.

[2] = system: vascular smooth muscle cells; assay: Phenotypic modulation and dedifferentiation of cultured VSMCs (morphology, hCAD mRNA); assay type: cell-based, rat
Procedure: Expression of lysophosphatidic acid-specific G protein-coupled plasma membrane receptors in rat carotid arteries was examined by RT-PCR as described earlier by Wang et al. (2002). To quantify heavy caldesmon mRNA, quantitative PCR was performed applying the real-time SYBR Green PCR method using a Sequence Detection System Model 7700 (Applied Biosystems) instrument. Rat heavy caldesmon and GAPDH (reference control mRNA)-specific primers were designed with Primer Express Software (Applied Biosystems), and forward and reverse primers were as follows: 5′-[…]-3′ (SEQ ID NO:1) and 5′-[…]-3′ (SEQ ID NO:2) for heavy caldesmon; 5′-[…]-3′ (SEQ ID NO:3) and 5′-[…]-3′ (SEQ ID NO:4) for GAPDH. Amplification reaction was performed with SYBR Green PCR Master Mix (Applied Biosystems) following the manufacturer's protocol. mRNA abundance calculation was based on Ct values as described previously (Wang et al., 2002). The expression level of heavy caldesmon mRNA was normalized to GAPDH mRNA. Each PCR reaction was performed at least three times, and the result was expressed as mean±SEM. Statistical comparison of mRNA expression was evaluated by ANOVA, and P<0.05 was considered statistically significant.
It has been reported that unsaturated lysophosphatidic acid species induced phenotypic modulation of cultured vascular smooth muscle cells (VSMCs). Because the neointimal response and PPARγ display a similar selectivity for unsaturated lysophosphatidic acid, that activation of PPARγ plays a role in the phenotypic dedifferentiation is hypothesized herein. This hypothesis was tested in a culture system in which IGF-1 maintains the differentiated spindle shape of vascular smooth muscle cells as indicated by high levels of heavy caldesmon (hCAD) mRNA expression.

[3] = 10 μM, rat carotid artery model (FIG. 3C)
[4] = 10 ng/ml, 2-wk period (FIG. 5B)

activation of the PPRE-Acox-Rluc reporter (PPARγ): inactive
Molecule: 2,3-cyclic phosphatidic acid [cPA 18:1]
neointima formation (rat carotid arteries; [3]): did not elicit detectable neointima
neointima formation (rat carotid arteries; 10 μM, rat carotid artery model (FIG. 3C), listed as cPA): inactive

Molecule: 3-O-octadecenyl-glycerophosphate [3AGP]
neointima formation (rat carotid arteries; [3]): modestly effective

Molecule: CCCCCCCCC=CCCCCCCCCOCC(O)COP(=O)(O)O (centres unmarked) [1AGP, 1-octadecenyl-glycerophosphate]
neointima formation (rat carotid arteries; [3]): highly effective
stimulation of CD36(−273)-Rluc reporter gene [1]: higher stimulation

Molecule: CCCCCCCCCCCCCCCCOCC(COP(=O)([O-])OCC[N+](C)(C)C)OC(=O)CCCCCCCC(=O)O (centres unmarked) [AZ-PC, 1-O-hexadecyl-2-azaleoyl-phosphatidylcholine]
neointima formation (rat carotid arteries; after 2 weeks (FIG. 6B)): caused neointima formation

inhibition of lysophosphatidic acid 20:4-induced PPRE-Acox-Rluc reporter gene expression (PPARγ; 10 μM (FIG. 6D)): abolished
Molecule: O=C(Nc1ccccc1)c1cc([N+](=O)[O-])ccc1Cl [GW9662]
inhibition of neointima formation elicited by lysophosphatidic acid 20:4 (rat carotid arteries; 5 μM 30 min before and coapplied with 2.5 μM LPA 20:4): completely abolished neointima formation; also recorded: inhibited
effect on vessels from animals treated with SOV-PC and saturated lysophosphatidic acid species (rat carotid arteries; FIG. 6B): had no effect
inhibition of AZ-PC-induced neointima formation (rat carotid arteries; FIG. 6B): inhibited by GW9662
inhibition of neointima formation in response to LPA 18:2 (rat carotid arteries; GW9662 pretreatment (FIG. 6B)): inhibited
inhibition of neointima formation in response to minimally oxidized LDL (rat carotid arteries; GW9662 pretreatment (FIG. 6B)): inhibited
inhibition of Rosi-induced lesion formation (rat carotid arteries; GW9662 pretreatment and coapplication (FIG. 6B)): fully blocked
effect on LPA 20:4- and Rosi-induced flattened morphology of VSMCs ([2]; 200 nM GW9662): reversed this effect
effect on hCAD mRNA expression ([2]; 200 nM pretreatment, quantitative RT-PCR (FIG. 8I)): caused a significant increase in hCAD mRNA expression
effect on morphology of IGF-1- and LPA 20:0-treated VSMC cultures ([2]; 200 nM, 30 min pretreatment): did not affect the spindle-like morphology

Molecule: CCCCCCCCCCCCCCCCCC(=O)OCC(O)COP(=O)(O)O (centres unmarked) [LPA 18:0]
neointima formation (rat carotid arteries; [3]): did not elicit detectable neointima

activation of the PPRE-Acox-Rluc reporter (PPARγ): inactive
Molecule: CCCCCCCCCCCCC/C=C/[C@@H](O)[C@@H](N)COP(=O)(O)O [S1P, sphingosine 1-phosphate]

Molecule: CCCCCCCCCCCCCCCCCC(=O)OC[C@H](COP(=O)([O-])OCC[N+](C)(C)C)OC(=O)CCCC=O [SOV-PC, stearoyl-oxovaleryl phosphatidylcholine]
neointima formation (rat carotid arteries; after 2 weeks (FIG. 6B)): failed to stimulate neointima formation

Molecule: CCCCCCCCCCCCCCCC(=O)O[C@H](COP(=O)(O)O)C(F)F [XY4, 1,1-difluorodeoxy-(2R)-palmitoyl-sn-glycero-3-phosphate]
neointima formation (rat carotid arteries; 10 μM, 2-wk period (FIG. 5B)): showed neointima formation

Molecule: CCCCCCCCCCCCCCCC(=O)OC[C@@H](F)COP(=O)(O)O [XY8, 1-palmitoyl-(2R)-fluorodeoxy-sn-glycero-3-phosphate]
neointima formation (rat carotid arteries; 10 μM, 2-wk period (FIG. 5B)): showed neointima formation

activation of the PPRE-Acox-Rluc reporter (PPARγ): activated the reporter gene
Molecule: CCCCCCCCCCCCCCCCOC[C@@H](O)COP(=O)(O)O [hexadecyl-GP]

activation of the PPRE-Acox-Rluc reporter (PPARγ): activated the reporter gene
Molecule: CCCCCCCCCCCCCCCCCCOC[C@@H](O)COP(=O)(O)O [octadecyl-GP]

Molecule: EGF: epidermal growth factor (NSDSECPLSHDGYCLHDGVCMYIEALDKYACNCVVGYIGERCQYRDLKWWELR; UniProt P01133 971-1023, looked up)
neointima formation (rat carotid arteries; 50 ng/ml, 2-wk period (FIG. 5B)): failed to induce detectable neointima
neointima formation (rat carotid arteries; 100 ng/ml (summary)): ineffective in inducing neointima formation

Molecule: LPA 18:1
neointima formation (rat carotid arteries; 10 μM, 2-wk period (FIG. 5B)): showed neointima formation
extent of neointima development, concentration dependence (rat carotid arteries; 2 wk after treatment (FIG. 4B)): concentration dependent up to 10 μM
concentration at which neointima development reached statistical significance (rat carotid arteries; P<0.01, FIG. 4B): 5 µM

Molecule: PDGF
neointima formation (rat carotid arteries; [4]): ineffective in inducing neointima formation; also recorded: failed to induce detectable neointima

Molecule: VEGF
neointima formation (rat carotid arteries; [4]): ineffective in inducing neointima formation; also recorded: failed to induce detectable neointima

Molecule: dioctylglycerol pyrophosphate [DGPP]
inhibition of lysophosphatidic acid 20:4-induced neointima formation (rat carotid arteries; FIG. 6A): modest inhibition

effect of added albumin on compound-induced activation of the PPRE-Acox-Rluc reporter gene (PPARγ; albumin 0.04-4% wt/vol, concentration-dependent (FIG. 7G)): inhibited
concentrations sufficient to cause significant activation of the reporter (PPARγ; dose-response (FIGS. 6E and F)): high nanomolar concentrations
effect of added rat serum on compound-induced activation of the PPRE-Acox-Rluc reporter gene (PPARγ; rat serum 1-20% vol/vol, concentration-dependent (FIG. 7H)): inhibited
Molecule: lysophosphatidic acid
